In PubChem BioAssay (NCI):
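How tested: cells in 96-well plates exposed to compound for 48 hours at five concentrations. At the GI50, growth is halved. TGI: concentration producing complete growth inhibition.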

How the values were obtained:
Experiment in all cases: growth of human tumour cells (NCI), 48 h
U251 CNS = system: U251 CNS
EKVX NSCLC = system: EKVX NSCLC
OVCAR-4 ovarian = system: OVCAR-4 ovarian
HL-60(TB) leukemia = system: HL-60(TB) leukemia
SN12C renal = system: SN12C renal
NCI-H522 lung = system: NCI-H522 lung
TK-10 renal = system: TK-10 renal
OVCAR-3 ovarian = system: OVCAR-3 ovarian
NCI-H23 lung = system: NCI-H23 lung
NCI/ADR-RES ovarian = system: NCI/ADR-RES ovarian

C/C=C/C(=O)[O-].N.N.N.N.N.[Co+3].[O-][Cl+3]([O-])([O-])[O-]
GI50 (U251 CNS): > 100 µM | TGI (U251 CNS): > 100 µM | GI50 (EKVX NSCLC): > 100 µM | TGI (EKVX NSCLC): > 100 µM | GI50 (OVCAR-4 ovarian): > 100 µM | TGI (OVCAR-4 ovarian): > 100 µM | GI50 (HL-60(TB) leukemia): > 100 µM | TGI (HL-60(TB) leukemia): > 100 µM | GI50 (SN12C renal): > 100 µM | TGI (SN12C renal): > 100 µM | GI50 (NCI-H522 lung): > 100 µM | TGI (NCI-H522 lung): > 100 µM | GI50 (TK-10 renal): > 100 µM | TGI (TK-10 renal): > 100 µM | GI50 (OVCAR-3 ovarian): > 100 µM | TGI (OVCAR-3 ovarian): > 100 µM | GI50 (NCI-H23 lung): > 100 µM | TGI (NCI-H23 lung): > 100 µM

Cc1ccc(S(=O)(=O)c2ccsc2N)cc1
GI50 (U251 CNS): > 100 µM | TGI (U251 CNS): > 100 µM | GI50 (OVCAR-4 ovarian): 58.3 µM | TGI (OVCAR-4 ovarian): > 100 µM | GI50 (HL-60(TB) leukemia): > 100 µM | TGI (HL-60(TB) leukemia): > 100 µM | GI50 (SN12C renal): > 100 µM | TGI (SN12C renal): > 100 µM | GI50 (NCI-H522 lung): > 100 µM | TGI (NCI-H522 lung): > 100 µM | GI50 (TK-10 renal): > 100 µM | TGI (TK-10 renal): > 100 µM | GI50 (OVCAR-3 ovarian): 56.1 µM | TGI (OVCAR-3 ovarian): > 100 µM | GI50 (NCI/ADR-RES ovarian): > 100 µM | TGI (NCI/ADR-RES ovarian): > 100 µM | GI50 (NCI-H23 lung): > 100 µM | TGI (NCI-H23 lung): > 100 µM

CNC(C)Cc1ccc(O)cc1 (configuration not stated)
TGI (U251 CNS): > 100 µM | TGI (EKVX NSCLC): > 100 µM | TGI (OVCAR-4 ovarian): > 100 µM | TGI (HL-60(TB) leukemia): > 100 µM | TGI (SN12C renal): > 100 µM | TGI (NCI-H522 lung): > 100 µM | TGI (TK-10 renal): > 100 µM | TGI (OVCAR-3 ovarian): > 100 µM | TGI (NCI-H23 lung): > 100 µM

COC(=O)C1=C(c2cc(OC)c(OC)c(OC)c2)O[C@H](c2ccc3c(c2)OCO3)[C@H]1COC(C)=O
TGI (U251 CNS): 63.5 µM | TGI (EKVX NSCLC): > 100 µM | TGI (OVCAR-4 ovarian): > 100 µM | TGI (HL-60(TB) leukemia): 40.3 µM | TGI (SN12C renal): 96.2 µM | TGI (TK-10 renal): > 100 µM | TGI (OVCAR-3 ovarian): > 100 µM | TGI (NCI-H23 lung): 57.1 µM

CC(C)=CCC/C(C)=C/[C@H]1OC(=O)CC12C[C@H](O)C=CC2=O (some centres not stated)
GI50 (U251 CNS): 0.752 µM | TGI (U251 CNS): 2.03 µM | GI50 (EKVX NSCLC): 2.21 µM | TGI (EKVX NSCLC): 5.24 µM | GI50 (HL-60(TB) leukemia): 0.323 µM | TGI (HL-60(TB) leukemia): 1.11 µM | GI50 (SN12C renal): 0.529 µM | TGI (SN12C renal): 2 µM | GI50 (NCI-H522 lung): 1.19 µM | GI50 (TK-10 renal): 1.31 µM | TGI (TK-10 renal): 2.93 µM | GI50 (OVCAR-3 ovarian): 0.455 µM | TGI (OVCAR-3 ovarian): 0.848 µM | GI50 (NCI/ADR-RES ovarian): 0.553 µM | TGI (NCI/ADR-RES ovarian): 2.47 µM | GI50 (NCI-H23 lung): 0.308 µM | TGI (NCI-H23 lung): 1.04 µM

CC1(C)N=C(N)N=C(N)N1c1ccc(OCCCCNC(=O)c2ccc(S(=O)(=O)F)cc2)c(Cl)c1
GI50 (U251 CNS): 5.65 µM | TGI (U251 CNS): > 100 µM | GI50 (OVCAR-4 ovarian): 93.7 µM | TGI (OVCAR-4 ovarian): > 100 µM | GI50 (HL-60(TB) leukemia): 1.84 µM | TGI (HL-60(TB) leukemia): > 100 µM | GI50 (SN12C renal): 4.47 µM | TGI (SN12C renal): > 100 µM | GI50 (NCI-H522 lung): 10.5 µM | TGI (NCI-H522 lung): > 100 µM | GI50 (OVCAR-3 ovarian): 50.4 µM | TGI (OVCAR-3 ovarian): > 100 µM | GI50 (NCI/ADR-RES ovarian): > 100 µM | TGI (NCI/ADR-RES ovarian): > 100 µM

Cc1ccc(C)c2c1CCc1cc3ccccc3nc1-2
TGI (U251 CNS): > 100 µM | TGI (EKVX NSCLC): > 100 µM | TGI (OVCAR-4 ovarian): > 100 µM | TGI (SN12C renal): > 100 µM | TGI (NCI-H522 lung): > 100 µM | TGI (TK-10 renal): > 100 µM | TGI (OVCAR-3 ovarian): > 100 µM | TGI (NCI-H23 lung): > 100 µM

O=C(O)Cc1cc(=O)[nH]c2c1C(=O)CCC2
TGI (U251 CNS): > 100 µM | TGI (EKVX NSCLC): > 100 µM | TGI (HL-60(TB) leukemia): > 100 µM | TGI (SN12C renal): > 100 µM | TGI (NCI-H522 lung): > 100 µM | TGI (TK-10 renal): > 100 µM | TGI (OVCAR-3 ovarian): > 100 µM | TGI (NCI-H23 lung): > 100 µM

O=c1oc2cc(OS(=O)(=O)c3ccccc3)ccc2c2c1CCCCC2
GI50 (U251 CNS): 4.51 µM | TGI (U251 CNS): > 100 µM | GI50 (OVCAR-4 ovarian): 4.58 µM | TGI (OVCAR-4 ovarian): > 100 µM | GI50 (HL-60(TB) leukemia): 2.05 µM | TGI (HL-60(TB) leukemia): 8.54 µM | GI50 (SN12C renal): 7.24 µM | TGI (SN12C renal): > 100 µM | GI50 (NCI-H522 lung): 6.44 µM | TGI (NCI-H522 lung): > 100 µM | GI50 (TK-10 renal): > 100 µM | TGI (TK-10 renal): > 100 µM | GI50 (NCI/ADR-RES ovarian): 4.53 µM | TGI (NCI/ADR-RES ovarian): > 100 µM | GI50 (NCI-H23 lung): 7.27 µM | TGI (NCI-H23 lung): > 100 µM

Cc1[nH]n(-c2ccccc2)c(=O)c1C(=O)c1ccccc1
GI50 (U251 CNS): 16.2 µM | TGI (U251 CNS): > 25 µM | GI50 (OVCAR-4 ovarian): > 25 µM | TGI (OVCAR-4 ovarian): > 25 µM | GI50 (HL-60(TB) leukemia): > 25 µM | TGI (HL-60(TB) leukemia): > 25 µM | GI50 (SN12C renal): > 25 µM | TGI (SN12C renal): > 25 µM | GI50 (NCI-H522 lung): > 25 µM | TGI (NCI-H522 lung): > 25 µM | GI50 (TK-10 renal): > 25 µM | TGI (TK-10 renal): > 25 µM | GI50 (OVCAR-3 ovarian): > 25 µM | TGI (OVCAR-3 ovarian): > 25 µM | GI50 (NCI/ADR-RES ovarian): > 23.8 µM | TGI (NCI/ADR-RES ovarian): > 25 µM | GI50 (NCI-H23 lung): > 25 µM | TGI (NCI-H23 lung): > 25 µM

Cc1cccc(O)c(=O)c1
TGI (U251 CNS): > 100 µM | TGI (EKVX NSCLC): 98.9 µM | TGI (OVCAR-4 ovarian): > 100 µM | TGI (HL-60(TB) leukemia): 12.1 µM | TGI (SN12C renal): > 100 µM | TGI (NCI-H522 lung): > 100 µM | TGI (TK-10 renal): > 100 µM | TGI (OVCAR-3 ovarian): > 100 µM

COC(=O)c1nn(C(=N)c2ccc(Cl)cc2)c2c1CCCCC2
TGI (U251 CNS): > 100 µM | TGI (OVCAR-4 ovarian): > 100 µM | TGI (HL-60(TB) leukemia): > 100 µM | TGI (SN12C renal): > 100 µM | TGI (NCI-H522 lung): > 100 µM | TGI (TK-10 renal): > 100 µM | TGI (NCI-H23 lung): > 100 µM

COC(=O)/C(=N/O)C(C(=O)OC)C(=O)C(=O)Nc1c(Cl)cc(C)cc1S(=O)(=O)O (configuration not stated)
TGI (U251 CNS): > 100 µM | TGI (EKVX NSCLC): > 100 µM | TGI (OVCAR-4 ovarian): > 100 µM | TGI (HL-60(TB) leukemia): > 100 µM | TGI (SN12C renal): > 100 µM | TGI (NCI-H522 lung): > 100 µM | TGI (TK-10 renal): > 100 µM | TGI (OVCAR-3 ovarian): > 100 µM | TGI (NCI-H23 lung): > 100 µM

[N-]=[N+]=Nc1c(Br)c(=O)[nH]c(=O)n1COCCO
TGI (U251 CNS): > 100 µM | TGI (OVCAR-4 ovarian): > 100 µM | TGI (HL-60(TB) leukemia): > 100 µM | TGI (SN12C renal): > 100 µM | TGI (NCI-H522 lung): > 100 µM | TGI (TK-10 renal): > 100 µM | TGI (OVCAR-3 ovarian): > 100 µM | TGI (NCI-H23 lung): > 100 µM

Cc1cc(Cl)ccc1NC(=O)NC(C)(C)COC(=O)Nc1cccc(Cl)c1
GI50 (U251 CNS): 4.56 µM | TGI (U251 CNS): 19.3 µM | GI50 (OVCAR-4 ovarian): 6.55 µM | TGI (OVCAR-4 ovarian): 90.6 µM | GI50 (HL-60(TB) leukemia): 9.71 µM | TGI (HL-60(TB) leukemia): 71.9 µM | GI50 (SN12C renal): 7.14 µM | TGI (SN12C renal): > 100 µM | GI50 (TK-10 renal): 8.86 µM | TGI (TK-10 renal): > 100 µM | GI50 (OVCAR-3 ovarian): 3.78 µM | TGI (OVCAR-3 ovarian): 12.7 µM | GI50 (NCI/ADR-RES ovarian): 4.12 µM | TGI (NCI/ADR-RES ovarian): > 100 µM | GI50 (NCI-H23 lung): 3.66 µM | TGI (NCI-H23 lung): 28.4 µM

CCCCN(CCCC)C(=O)C(=O)CC(=O)/C=C/c1ccccc1
TGI (U251 CNS): > 100 µM | TGI (EKVX NSCLC): > 100 µM | TGI (OVCAR-4 ovarian): > 100 µM | TGI (HL-60(TB) leukemia): > 100 µM | TGI (SN12C renal): > 100 µM | TGI (NCI-H522 lung): > 100 µM | TGI (TK-10 renal): > 100 µM | TGI (OVCAR-3 ovarian): > 100 µM | TGI (NCI-H23 lung): > 100 µM

COc1cc2c3c(c1OC)Oc1ccc(cc1)CC1c4c(cc(OC)c(OC)c4Oc4ccc(cc4)CC3N(C)CC2)CCN1C (configuration not stated)
TGI (U251 CNS): 30.8 µM | TGI (EKVX NSCLC): > 100 µM | TGI (OVCAR-4 ovarian): 36.3 µM | TGI (HL-60(TB) leukemia): 34.1 µM | TGI (SN12C renal): 49.7 µM | TGI (NCI-H522 lung): 25.8 µM | TGI (TK-10 renal): 46.1 µM | TGI (OVCAR-3 ovarian): 44.7 µM | TGI (NCI-H23 lung): > 100 µM

Cc1cc(Cl)ccc1NC(=O)CCCC(=O)C(C(=O)c1ccccc1)c1ccccc1 (configuration not stated)
TGI (U251 CNS): > 100 µM | TGI (OVCAR-4 ovarian): > 100 µM | TGI (HL-60(TB) leukemia): > 100 µM | TGI (SN12C renal): > 100 µM | TGI (NCI-H522 lung): > 100 µM | TGI (OVCAR-3 ovarian): > 100 µM | TGI (NCI-H23 lung): > 100 µM
